Measurements: patent US10399940B2, “Substituted pyrrolidines and methods of use” (AbbVie S.à.r.l., priority 2016, dated 2019)
Read-outs that look alike come from different tables or passages of the source.

Molecular target: T1, F508delCFTR (Homo sapiens, UniProt P13569, DEL508-508)
T1 construct: expressed in transfected cells; host or cells: CFBE41o- (human lung derived epithelial cell line), doxycycline-inducible expression
Assay: Cell Surface Expression-Horse Radish Peroxidase (CSE-HRP) assay
Assay type: cell-based
Settings: CFBE41o-F508delCFTR-HRP cells; for Maximum % activity (with co-corrector): with co-corrector (2 μM); for Maximum % activity (with co-corrector) / Maximum % activity (without co-corrector): normalized to on-plate positive control, highest concentration 20 μM
Procedure, shortened: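 CFBE41o- cells expressed F508delCFTR with HRP in the fourth exofacial loop, induced by 0.5 μg/mL doxycycline for 72 h at 37 °C. Compounds alone or with 2 μM co-corrector ran 18–24 h at 33 °C, 8-point 3-fold from 20 μM. Washed-cell luminol luminescence was normalized to DMSO and positive control, fitted sigmoidally for EC50 (three plates).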

[1] = test compound without co-corrector, 18-24 hours at 33° C., read-out: EC50 (without co-corrector)
[2] = with co-corrector (2 μM of 3-[(2R,4R)-4-({[1-(2,2-difluoro-1,3-benzodioxol-5-yl)cyclopropyl]carbonyl}amino)-7-methoxy-3,4-dihydro-2H-chromen-2-yl]benzoic acid), read-out: EC50 (with co-corrector)

T1 sequence (P13569 with tags, fused parts or gaps DEL508-508): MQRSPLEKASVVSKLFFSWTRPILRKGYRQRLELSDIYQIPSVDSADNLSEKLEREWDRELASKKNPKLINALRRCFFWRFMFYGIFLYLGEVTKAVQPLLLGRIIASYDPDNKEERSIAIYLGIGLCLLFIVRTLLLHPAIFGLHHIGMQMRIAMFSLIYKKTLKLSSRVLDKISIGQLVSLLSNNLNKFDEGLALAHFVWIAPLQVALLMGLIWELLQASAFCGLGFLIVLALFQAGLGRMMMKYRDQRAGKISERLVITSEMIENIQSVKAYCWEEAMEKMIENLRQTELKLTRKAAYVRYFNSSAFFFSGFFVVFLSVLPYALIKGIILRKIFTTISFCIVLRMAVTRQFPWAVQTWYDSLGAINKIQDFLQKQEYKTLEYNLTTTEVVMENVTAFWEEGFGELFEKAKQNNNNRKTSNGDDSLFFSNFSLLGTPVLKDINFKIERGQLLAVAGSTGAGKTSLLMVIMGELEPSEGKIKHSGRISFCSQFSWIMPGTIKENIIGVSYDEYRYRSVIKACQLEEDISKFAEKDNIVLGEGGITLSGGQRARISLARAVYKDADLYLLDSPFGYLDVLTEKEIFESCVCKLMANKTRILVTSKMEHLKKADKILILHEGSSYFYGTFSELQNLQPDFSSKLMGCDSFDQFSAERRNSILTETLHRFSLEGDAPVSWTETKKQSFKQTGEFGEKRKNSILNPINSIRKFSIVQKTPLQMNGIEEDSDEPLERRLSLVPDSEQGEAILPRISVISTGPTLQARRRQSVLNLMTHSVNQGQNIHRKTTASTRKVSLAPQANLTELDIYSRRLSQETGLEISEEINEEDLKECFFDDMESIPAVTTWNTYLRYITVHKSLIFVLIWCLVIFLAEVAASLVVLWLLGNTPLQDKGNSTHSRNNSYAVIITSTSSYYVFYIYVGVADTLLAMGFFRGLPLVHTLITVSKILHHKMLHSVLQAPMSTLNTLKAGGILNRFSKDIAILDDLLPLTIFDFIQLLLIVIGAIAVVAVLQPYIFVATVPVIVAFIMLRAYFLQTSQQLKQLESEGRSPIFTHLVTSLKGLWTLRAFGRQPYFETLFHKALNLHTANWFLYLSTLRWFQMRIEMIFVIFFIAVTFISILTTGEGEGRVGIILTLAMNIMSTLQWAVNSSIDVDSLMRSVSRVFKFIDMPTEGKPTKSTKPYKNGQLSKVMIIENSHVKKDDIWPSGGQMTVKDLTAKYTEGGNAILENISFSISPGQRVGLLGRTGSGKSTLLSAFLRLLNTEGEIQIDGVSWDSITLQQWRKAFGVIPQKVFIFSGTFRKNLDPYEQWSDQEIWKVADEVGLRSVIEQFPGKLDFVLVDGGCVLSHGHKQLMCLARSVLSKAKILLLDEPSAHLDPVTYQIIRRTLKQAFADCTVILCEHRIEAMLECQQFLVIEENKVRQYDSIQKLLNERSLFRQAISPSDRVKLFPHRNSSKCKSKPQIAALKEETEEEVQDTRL

Row | SMILES | EC50 [1] | EC50 [2] | Maximum % activity (with co-corrector) | Maximum % activity (without co-corrector)
1 | COc1ncc(C(F)(F)F)cc1CO[C@H]1[C@H](C(C)(C)C)[C@@H](C(=O)O)N(C(=O)C2CCC2)[C@H]1c1cccnc1OC(C)C [Example 160, (2S,3R,4S,5S)-3-tert-butyl-1-(cyclobutanecarbonyl)-4-{[2-methoxy-5-(trifluoromethyl)pyridin-3-yl]methoxy}-5-{2-[(propan-2-yl)oxy]pyridin-3-yl}pyrrolidine-2-carboxylic acid] | 1000 to 10000 nM | 1000 to 10000 nM | ++ (≥150 and <350) | + (<100)
2 | COc1ncc(C2CCC2)cc1CO[C@H]1[C@H](C(C)(C)C)[C@@H](C(=O)O)N(C(=O)C2CCC2)[C@H]1c1cccnc1OC(C)C [Example 161, (2S,3R,4S,5S)-3-tert-butyl-1-(cyclobutanecarbonyl)-4-[(5-cyclobutyl-2-methoxypyridin-3-yl)methoxy]-5-{2-[(propan-2-yl)oxy]pyridin-3-yl}pyrrolidine-2-carboxylic acid] | 1000 to 10000 nM | 1000 to 10000 nM | +++ (≥350) | + (<100)
3 | COc1ccc(C(C)(C)C)cc1CO[C@H]1[C@H](C(C)(C)C)[C@@H](C(=O)O)N(C(=O)[C@@H]2CCCO2)[C@H]1c1ccccc1Br [Example 162, (2S,3R,4S,5S)-5-(2-bromophenyl)-3-tert-butyl-4-[(5-tert-butyl-2-methoxyphenyl)methoxy]-1-[(2S)-oxolane-2-carbonyl]pyrrolidine-2-carboxylic acid] | 1000 to 10000 nM | < 1000 nM | +++ (≥350) | +++ (≥200)
4 | COc1ncc(C(F)(F)F)cc1CO[C@@H]1[C@H](C(C)(C)C)[C@@H](C(=O)O)N(C(=O)C2CCCC2)[C@H]1c1cccnc1OC(C)C [Example 163, (2S,3R,4R,5S)-3-tert-butyl-1-(cyclopentanecarbonyl)-4-{[2-methoxy-5-(trifluoromethyl)pyridin-3-yl]methoxy}-5-{2-[(propan-2-yl)oxy]pyridin-3-yl}pyrrolidine-2-carboxylic acid] | > 10000 nM | > 10000 nM | + (<150) | + (<100)
5 | COc1ncc(C(F)(F)F)cc1CO[C@@H]1[C@H](C(C)(C)C)[C@@H](C(=O)O)N(C(=O)C2CCCCC2)[C@H]1c1cccnc1OC(C)C [Example 164, (2S,3R,4R,5S)-3-tert-butyl-1-(cyclohexanecarbonyl)-4-{[2-methoxy-5-(trifluoromethyl)pyridin-3-yl]methoxy}-5-{2-[(propan-2-yl)oxy]pyridin-3-yl}pyrrolidine-2-carboxylic acid] | > 10000 nM | > 10000 nM | + (<150) | + (<100)
6 | COc1ncc(C2CCC2)cc1CO[C@H]1[C@H](C(C)(C)C)[C@@H](C(=O)O)N(C(=O)[C@@H]2CCCO2)[C@H]1c1ccccc1C(F)F [Example 165, (2S,3R,4S,5S)-3-tert-butyl-4-[(5-cyclobutyl-2-methoxypyridin-3-yl)methoxy]-5-[2-(difluoromethyl)phenyl]-1-[(2S)-oxolane-2-carbonyl]pyrrolidine-2-carboxylic acid] | 1000 to 10000 nM | 1000 to 10000 nM | +++ (≥350) | ++ (≥100 and <200)
7 | COc1ncc(C2CCC2)cc1CO[C@@H]1[C@H](C(C)(C)C)[C@@H](C(=O)O)N(C(=O)OC(C)C)[C@H]1c1ccccc1Br [Example 166, (2S,3R,4R,5S)-5-(2-bromophenyl)-3-tert-butyl-4-[(5-cyclobutyl-2-methoxypyridin-3-yl)methoxy]-1-{[(propan-2-yl)oxy]carbonyl}pyrrolidine-2-carboxylic acid] | 1000 to 10000 nM | 1000 to 10000 nM | +++ (≥350) | + (<100)
8 | COc1ncc(C(F)(F)F)cc1CO[C@H]1[C@H](C(C)(C)C)[C@@H](C(=O)O)N(C(=O)OC(C)C)[C@H]1c1c(F)cccc1F [Example 167, (2S,3R,4S,5S)-3-tert-butyl-5-(2,6-difluorophenyl)-4-{[2-methoxy-5-(trifluoromethyl)pyridin-3-yl]methoxy}-1-{[(propan-2-yl)oxy]carbonyl}pyrrolidine-2-carboxylic acid] | 1000 to 10000 nM | 1000 to 10000 nM | ++ (≥150 and <350) | + (<100)
9 | COc1ncc(C2CCC2)cc1CO[C@H]1[C@H](C(C)(C)C)[C@@H](C(=O)O)N(C(=O)OC(C)C)[C@H]1c1ccccc1C1CC1 [Example 168, (2S,3R,4S,5S)-3-tert-butyl-4-[(5-cyclobutyl-2-methoxypyridin-3-yl)methoxy]-5-(2-cyclopropylphenyl)-1-{[(propan-2-yl)oxy]carbonyl}pyrrolidine-2-carboxylic acid] | 1000 to 10000 nM | 1000 to 10000 nM | +++ (≥350) | ++ (≥100 and <200)
10 | COc1ncc(C2CCC2)cc1CO[C@H]1[C@H](C(C)(C)C)[C@@H](C(=O)O)N(C(=O)C2CCCCC2)[C@H]1c1cccnc1OC(C)C [Example 169, (2S,3R,4S,5S)-3-tert-butyl-4-[(5-cyclobutyl-2-methoxypyridin-3-yl)methoxy]-1-(cyclohexanecarbonyl)-5-{2-[(propan-2-yl)oxy]pyridin-3-yl}pyrrolidine-2-carboxylic acid] | 1000 to 10000 nM | 1000 to 10000 nM | +++ (≥350) | +++ (≥200)
11 | COc1ncc(C2CCC2)cc1CO[C@H]1[C@H](C(C)(C)C)[C@@H](C(=O)O)N(C(=O)[C@@H]2CCCCO2)[C@H]1c1ccccc1C [Example 170, (2S,3R,4S,5S)-3-tert-butyl-4-[(5-cyclobutyl-2-methoxypyridin-3-yl)methoxy]-5-(2-methylphenyl)-1-[(2S)-oxane-2-carbonyl]pyrrolidine-2-carboxylic acid] | 1000 to 10000 nM | < 1000 nM | +++ (≥350) | +++ (≥200)
12 | COc1ncc(C2CCC2)cc1CO[C@H]1[C@H](C(C)(C)C)[C@@H](C(=O)O)N(C(=O)[C@@H]2CCCCO2)[C@H]1c1ccccc1C1CC1 [Example 171, (2S,3R,4S,5S)-3-tert-butyl-4-[(5-cyclobutyl-2-methoxypyridin-3-yl)methoxy]-5-(2-cyclopropylphenyl)-1-[(2S)-oxane-2-carbonyl]pyrrolidine-2-carboxylic acid] | 1000 to 10000 nM | 1000 to 10000 nM | +++ (≥350) | +++ (≥200)
13 | COc1ccc(C(C)(C)C)cc1CO[C@H]1[C@H](C(C)(C)C)[C@@H](C(=O)O)N(C(=O)[C@@H]2CCCO2)[C@H]1c1ccccc1C1CC1 [Example 172, (2S,3R,4S,5S)-3-tert-butyl-4-[(5-tert-butyl-2-methoxyphenyl)methoxy]-5-(2-cyclopropylphenyl)-1-[(2S)-oxolane-2-carbonyl]pyrrolidine-2-carboxylic acid] | 1000 to 10000 nM | 1000 to 10000 nM | +++ (≥350) | +++ (≥200)
14 | COc1ncc(Br)cc1CO[C@H]1[C@H](C(C)(C)C)[C@@H](C(=O)O)N(C(=O)[C@@H]2CCCO2)[C@H]1c1ccccc1C1CC1 [Example 173, (2S,3R,4S,5S)-4-[(5-bromo-2-methoxypyridin-3-yl)methoxy]-3-tert-butyl-5-(2-cyclopropylphenyl)-1-[(2S)-oxolane-2-carbonyl]pyrrolidine-2-carboxylic acid] | 1000 to 10000 nM | 1000 to 10000 nM | +++ (≥350) | +++ (≥200)
15 | COc1ccc(C(F)(F)F)cc1CO[C@H]1[C@H](C(C)(C)C)[C@@H](C(=O)O)N(C(=O)[C@@H]2CCCCO2)[C@H]1c1ccccc1C [Example 174, (2S,3R,4S,5S)-3-tert-butyl-4-{[2-methoxy-5-(trifluoromethyl)phenyl]methoxy}-5-(2-methylphenyl)-1-[(2S)-oxane-2-carbonyl]pyrrolidine-2-carboxylic acid] | < 1000 nM | < 1000 nM | +++ (≥350) | +++ (≥200)
16 | COc1cc(C(F)(F)F)ccc1CO[C@H]1[C@H](C(C)(C)C)[C@@H](C(=O)O)N(C(=O)[C@@H]2CCCCO2)[C@H]1c1ccccc1C [Example 175, (2S,3R,4S,5S)-3-tert-butyl-4-{[2-methoxy-4-(trifluoromethyl)phenyl]methoxy}-5-(2-methylphenyl)-1-[(2S)-oxane-2-carbonyl]pyrrolidine-2-carboxylic acid] | 1000 to 10000 nM | < 1000 nM | +++ (≥350) | +++ (≥200)
17 | COc1ncc(C2CCC2)cc1CO[C@H]1[C@H](C(C)(C)C)[C@@H](C(=O)O)N(C(=O)[C@@H]2CCCCO2)[C@H]1c1ccccc1C(C)C [Example 176, (2S,3R,4S,5S)-3-tert-butyl-4-[(5-cyclobutyl-2-methoxypyridin-3-yl)methoxy]-1-[(2S)-oxane-2-carbonyl]-5-[2-(propan-2-yl)phenyl]pyrrolidine-2-carboxylic acid] | 1000 to 10000 nM | < 1000 nM | +++ (≥350) | +++ (≥200)
